Assay results from patent publication US12576135B2, “Compositions and methods for anti-TnMUC1 gold CAR t-cells” (Chimera Bioengineering, Inc., priority 2021, dated 2026).

Tested on: primary T-cells
Assay: Rapamycin inhibition of Gold controlled nano-luciferase in anti-DLL3 CAR primary T-cells mixed with SHP-77 cells
Assay type: cell-based
Settings: Concurrent Rx and Delay Rx; 24, 48, 72 hours
Text: A bicistronic vector with an anti-DLL3-CAR and nano-luceiferase under the control of an IFNg Gold element is made using the methods and materials described above. This bicistronic vector is transduced into primary T-cells, and transduced T-cells are obtained. When the transduced T-cells are mixed with SHP-77 cells that display the DLL3 antigen, the primary T-cells are activated and nano-luciferase is expressed.
The ability of rapamycin to inhibit the expression of nano-luciferase following activation of the primary T-cells was tested. Primary T-cells transduced with the bicistronic vector encoding the anti-DLL3 CAR and nano-luciferase were mixed with SHP-77 cells and then three treatment regimens were used. No rapamycin (NoRx), rapamycin added concurrently with the SHP-77 cells (Concurrent Rx), or rapamycin added 24 hours after SHP-77 cells was added (Delay Rx). New media was mixed with the cells every 24 hours. If the cells had received rapamycin in the media in the earlier time period, rapamycin was included with the media at subsequent media changes.
FIG. 22 normalizes the nano-luciferase activity to that of the NoRx sample. Levels of nano-luciferase were measured at 24 hours, 48 hours and 72 hours post mixing with SHP-77 cells.

Row | Structure (SMILES) | expression of nano-luciferase normalized to NoRx
1 | CO[C@H]1C[C@@H]2CC[C@@H](C)[C@@](O)(O2)C(=O)C(=O)N2CCCC[C@H]2C(=O)O[C@H]([C@H](C)C[C@@H]2CC[C@@H](O)[C@H](OC)C2)CC(=O)[C@H](C)/C=C(\C)[C@@H](O)[C@@H](OC)C(=O)[C@H](C)C[C@H](C)/C=C/C=C/C=C/1C [Rapamycin/sirolimus] | reduced expression of nano-luciferase

Tested on: PI3K
Assay: not given
Settings: cited from earlier work

Row | Structure (SMILES) | IC50
2 | COc1ccc(-c2ccc3c(N4CCOC[C@@H]4C)nc(N4CCOC[C@@H]4C)nc3n2)cc1CO [AZD8055] | 3.59 µM
3 | COc1ccc(-c2ccc3c(N4CCOCC4)nc(N4C[C@@H](C)O[C@@H](C)C4)nc3n2)cc1CO [KU-0063794] | > 10 µM
6 | CCC(=O)N1CCN(c2ccc(-n3c(=O)ccc4cnc5ccc(-c6cnc7ccccc7c6)cc5c43)cc2C(F)(F)F)CC1 [Torin 1] | 0.25 µM
7 | Nc1ccc(-c2ccc3ncc4ccc(=O)n(-c5cccc(C(F)(F)F)c5)c4c3c2)cn1 [Torin 2] | 0.00468 µM
8 | CNC(=O)Nc1ccc(-c2nc(N3CC4CCC(C3)O4)c3cnn(C4CCC5(CC4)OCCO5)c3n2)cc1 [WYE-125132] | 1.18 µM

Biological target: mTORC1 (Homo sapiens, UniProt P42345)
Assay: not given
Settings: cited from earlier work

Row | Structure (SMILES) | IC50
9 | CO[C@H]1C[C@@H]2CC[C@@H](C)[C@@](O)(O2)C(=O)C(=O)N2CCCC[C@H]2C(=O)O[C@H]([C@H](C)C[C@@H]2CC[C@@H](OCCO)[C@H](OC)C2)CC(=O)[C@H](C)/C=C(\C)[C@@H](O)[C@@H](OC)C(=O)[C@H](C)C[C@H](C)/C=C/C=C/C=C/1C [Everolimus] | 0.0018 to 0.0026 µM
10 | CNC(=O)Nc1ccc(-c2nc(N3CC4CCC(C3)O4)c3cnn(C4CCC5(CC4)OCCO5)c3n2)cc1 [WYE-125132] | 0.00019 µM
